# Experimental data from patent US20090312624A1, “ELECTROPHY[…] FOR COGNITIVE MODULATORS” (priority 2008, published 2009).
# Entries after “also recorded” stand apart in the source; their conditions may differ. Like-named read-outs stand apart in the source and are kept apart here.
# Assays:
# prefrontal cortex = experiment: Evoked-response potential (ERP) recorded in the prefrontal cortex following electrical stimulation of the ventral subiculum of the hippocampus; format: in vivo, rat; details: for effect on the ERP recorded in the PFC (change from baseline): cognition-enhancing dose 0.5 mg/kg i.p., 0-30 min after administration, 0.5 mg/kg
# Text: Male Sprague-Dawley rats (250-350 g) were surgically implanted with 1-4 EEG recording electrodes into the prelimbic region of the PFC (coordinates: A +3.0±1.0 mm; L 0.8±0.3 mm; V −3.0) and a stimulation electrode into the subiculum/CA1 region of the hippocampus (coordinates: A −6.7; L 5.5; V −6.5). EEG signals were referenced to a ground electrode. Electrodes were held in place with acrylic cement and the animals were allowed to recover for 5-10 days prior to the measurements. Animals were provided with free access to food and water during testing.
# Animals were tested during daylight hours in a Plexiglas testing chamber (32×32×40 cm) housed in a sound-attenuating chamber. Animals were first habituated to the testing chamber prior to experimentation. Field potentials/EEG signals were amplified and recorded digitally.
# ERPs were constructed from peristimulus time histograms. Stimulation intensity that provides a distinct, though not large, ERP (filtered approx. 0.5-150 Hz) was first confirmed from greater than or equal to 50 stimulations that were provided at greater than or equal to 0.1 Hz. Stimulus current (0.1-3.0 mA) from a constant current source was adjusted to produce ERPs that were at least detectable from background electrical activity. Following this calibration of subiculum/CA1 stimulation intensity, ERPs were then collected from one or two 15-minute blocks comprised of a 10-min of hippocampal stimulation period ([…]) followed by 5-minutes of no stimulation. Following baseline recordings, vehicle or a putative cognitive enhancing compound (i.e., psychostimulant such as MPH or other drugs) were administered. ERPs were recorded in 15-min blocks described above for the next 60-90-minutes.
# Changes in ERPs were calculated from trial-bin counts used to generate peristimulus time histograms (PSTHs). Data were collected from non-sleep EEG states only, as determined from field potential recordings or in combination with video or other activity measurements. Each PSTH was generated from randomly selected stimulus presentations. Data were expressed as a percentage of baseline ERP activity (pre-vehicle or pre-MPH) and percentage change from saline, which permits comparisons between subjects with different magnitude/shape ERPs.
# Appropriate statistical comparisons, including mixed two-way ANOVA with both repeated (time)- and between (treatments)-measures, were used to determine statistical significance of candidate compound-induced changes in PFC. Analyses of ERPs as a function of dose and time and post-hoc comparisons were performed (i.e., Fisher LSD test).
# PFC-dependent cognition = details: rats, cited from earlier work
# [1] = tested on: catecholamine (norepinephrine and dopamine) neurotransmission; details: moderately higher doses that do not improve PFC-dependent cognition; cited from earlier work
compound,measurement,setting,value
"COC(=O)C(c1ccccc1)C1CCCCN1 (stereo not shown) [MPH, methylphenidate]",components of the ERP versus pre-treatment recordings (baseline),prefrontal cortex; 30-60 minute period following drug treatment,a number of components of the ERP were different
same,effect on the ERP recorded in the PFC (change from baseline),prefrontal cortex,clearly visible and distinct change from baseline; also recorded: alter the magnitude of specific components of the ERP
same,effect on the ERP recorded in the PFC (change from baseline),prefrontal cortex; listed as methylphenidate,significant effects
same,effect on the ERP recorded in the PFC,prefrontal cortex; higher doses that do not improve PFC-dependent cognition (2.0 mg/kg i.p.),do not significantly affect this ERP; also recorded: not observed
same,effect on PFC-dependent cognition,PFC-dependent cognition; 0.5 mg/kg,exerting cognition-enhancing effects
same,effect on PFC-dependent cognition,PFC-dependent cognition; 2.0 mg/kg,cognition-impairing; also recorded: lacking cognition-enhancing actions
same,selective targeting of prefrontal cortical catecholamines,[1],not observed
